EC50 data for 28 molecules are collected here from US11377425B1, “Small molecule modulators of IL-17” (LEO Pharma A/S, priority 2018, dated 2022).

This assay has as its target T1, human IL-17AA (Homo sapiens, UniProt Q16552).
T1 construct: host or cells: HEK (human embryonic kidney) cells
T1 sequence (Q16552 24-155): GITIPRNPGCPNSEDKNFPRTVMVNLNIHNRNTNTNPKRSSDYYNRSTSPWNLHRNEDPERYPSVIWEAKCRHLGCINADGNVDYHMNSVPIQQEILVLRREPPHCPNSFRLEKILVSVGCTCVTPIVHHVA
Description: IL-8 release assay in human epithelial keratinocytes adult (HEKa). Type of assay: cell-based. Conditions: HEKa cells, 3 ng/mL HEK-human IL-17AA + 10 ng/mL human TNFalpha; read-out: Rel EC50 IL-8 release assay. The method, boiled down: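 IL-8 release, quantified by HTRF and normalized to controls, reports IL-17 signaling in HEKa cells treated with compound plus final 3 ng/mL IL-17AA (HEK-derived) and 10 ng/mL TNF-alpha for 68-72 h; TNF-alpha-only wells set 100% inhibition. Four-parameter logistic fits (r^2>0.9) give relative IC50 and Emax; PrestoBlue flags cytotoxicity.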
A word on the EC50: it is the concentration that produces a half-maximal response. Regarding `Cc1n[nH]c(C)c1-c1ccc(NC(=O)[C@@H](NC(=O)OCc2ccccn2)C2CCCCC2)cc1` [Example 431, 2-pyridylmethyl N-[(1S)-1-cyclohexyl-2-[4-(3,5-dimethyl-1H-pyrazol-4-yl)anilino]-2-oxo-ethyl]carbamate], the EC50 lay within 100 to 1000 nM.

As to `Cc1n[nH]c(CO)c1-c1ccc(NC(=O)[C@@H](NC(=O)c2ccnn2C(C)C)C(C2CC2)C2CC2)cc1` [Example 432, N-[(1S)-1-(Dicyclopropylmethyl)-2-[4-[5-(hydroxymethyl)-3-methyl-1H-pyrazol-4-yl]anilino]-2-oxo-ethyl]-2-isopropyl-pyrazole-3-carboxamide], the EC50 is < 100 nM.

Regarding `Cc1n[nH]c(C(C)O)c1-c1ccc(NC(=O)[C@@H](NC(=O)OC(C)(C)C)C2CCCCC2)cc1` (stereo partly drawn) [Example 433, Tert-butyl N-[(1S)-1-cyclohexyl-2-[4-[5-(1-hydroxyethyl)-3-methyl-1H-pyrazol-4-yl]anilino]-2-oxo-ethyl]carbamate], the EC50 was > 1000 nM.

For `Cc1[nH]nc(C(C)O)c1-c1ccc(NC(=O)[C@@H](NC(=O)OC(C)(C)C)C(c2ccccc2)c2ccccc2)cc1` (stereo partly drawn) [Example 434, tert-butyl N-[(1S)-1-benzhydryl-2-[4-[5-(1-hydroxyethyl)-3-methyl-1H-pyrazol-4-yl]anilino]-2-oxo-ethyl]carbamate], the concentration for a half-maximal effect (EC50) was in the range of 100 to 1000 nM.

Turning to `Cc1n[nH]c(C(C)(C)O)c1-c1ccc(NC(=O)[C@@H](NC(=O)c2ccnn2C)C(c2ccccc2)c2ccccc2)cc1` [Example 435, N-[(1S)-1-benzhydryl-2-[4-[5-(1-hydroxy-1-methyl-ethyl)-3-methyl-1H-pyrazol-4-yl]anilino]-2-oxo-ethyl]-2-methyl-pyrazole-3-carboxamide], the EC50 lay in the range of 100 to 1000 nM.

Regarding `Cc1[nH]nc(C(C)(C)O)c1-c1ccc(NC(=O)[C@@H](NC(=O)OC(C)(C)C)C2CCCCC2)cc1` [Example 436, tert-butyl N-[(1S)-1-cyclohexyl-2-[4-[5-(1-hydroxy-1-methyl-ethyl)-3-methyl-1H-pyrazol-4-yl]anilino]-2-oxo-ethyl]carbamate], the EC50 was > 1000 nM.

With `Cc1[nH]nc(CO)c1-c1ccc(NC(=O)[C@@H](NC(=O)OC(C)(C)C)C(c2ccccc2)c2ccccc2)cc1` [Example 437, tert-butyl N-[(1S)-1-benzhydryl-2-[4-[5-(hydroxymethyl)-3-methyl-1H-pyrazol-4-yl]anilino]-2-oxo-ethyl]carbamate], the EC50 is 100 to 1000 nM.

On to `Cc1[nH]nc(CO)c1-c1ccc(NC(=O)[C@@H](NC(=O)OC(C)(C)C)C2CCCCC2)cc1` [Example 438, tert-butyl N-[(1S)-1-cyclohexyl-2-[4-[5-(hydroxymethyl)-3-methyl-1H-pyrazol-4-yl]anilino]-2-oxo-ethyl]carbamate], for which the EC50 fell in the range of 100 to 1000 nM.

As to `Cc1[nH]nc(CO)c1-c1ccc(NC(=O)[C@@H](NC(=O)OC(C)(C)C)C2CCCCCC2)cc1` [Example 439, tert-butyl N-[(1S)-1-cycloheptyl-2-[4-[5-(hydroxymethyl)-3-methyl-1H-pyrazol-4-yl]anilino]-2-oxo-ethyl]carbamate], the EC50 was 100 to 1000 nM.

For the molecule `Cc1n[nH]c(C(C)O)c1-c1ccc(NC(=O)[C@@H](NC(=O)c2ccnn2C)C2CCCCC2)cc1` (stereo partly drawn) [Example 440, N-[(1S)-1-Cyclohexyl-2-[4-[5-(1-hydroxyethyl)-3-methyl-1H-pyrazol-4-yl]anilino]-2-oxo-ethyl]-2-methyl-pyrazole-3-carboxamide], the EC50 lay within 100 to 1000 nM.

As for `Cc1n[nH]c(C(C)O)c1-c1ccc(NC(=O)[C@@H](NC(=O)C2(F)CC2)C2CCCCC2)cc1` (stereo partly drawn) [Example 441, N-[(1S)-1-cyclohexyl-2-[4-[5-(1-hydroxyethyl)-3-methyl-1H-pyrazol-4-yl]anilino]-2-oxo-ethyl]-1-fluoro-cyclopropanecarboxamide], the EC50 is > 1000 nM.

For the molecule `Cc1n[nH]c(C(C)O)c1-c1ccc(NC(=O)[C@@H](NC(=O)C2(F)CC2)C(c2ccccc2)c2ccccc2)cc1` (stereo partly drawn) [Example 442, N-[(1S)-1-benzhydryl-2-[4-[5-(1-hydroxyethyl)-3-methyl-1H-pyrazol-4-yl]anilino]-2-oxo-ethyl]-1-fluoro-cyclopropanecarboxamide], the EC50 is 100 to 1000 nM.

In the case of `Cc1n[nH]c(C(C)O)c1-c1ccc(NC(=O)[C@@H](NC(=O)c2ccnn2C)C(c2ccccc2)c2ccccc2)cc1` (stereo partly drawn) [Example 443, N-[(1S)-1-benzhydryl-2-[4-[5-(1-hydroxyethyl)-3-methyl-1H-pyrazol-4-yl]anilino]-2-oxo-ethyl]-2-methyl-pyrazole-3-carboxamide], the EC50 is 100 to 1000 nM.

Regarding `Cc1n[nH]c(CO)c1-c1ccc(NC(=O)[C@@H](NC(=O)c2ccnn2C)C2CCCCC2)cc1` [Example 445, N-[(1S)-1-cyclohexyl-2-[4-[5-(hydroxymethyl)-3-methyl-1H-pyrazol-4-yl]anilino]-2-oxo-ethyl]-2-methyl-pyrazole-3-carboxamide], the EC50 fell in the range of 100 to 1000 nM.

On to `Cc1n[nH]c(CO)c1-c1ccc(NC(=O)[C@@H](NC(=O)c2ccnn2C)C2CCCCCC2)cc1` [Example 446, N-[(1S)-1-cycloheptyl-2-[4-[5-(hydroxymethyl)-3-methyl-1H-pyrazol-4-yl]anilino]-2-oxo-ethyl]-2-methyl-pyrazole-3-carboxamide], for which the EC50 is < 100 nM.

With `Cc1n[nH]c(CO)c1-c1ccc(NC(=O)[C@@H](NC(=O)c2ccnn2C)C(c2ccccc2)c2ccccc2)cc1` [Example 447, N-[(1S)-1-benzhydryl-2-[4-[5-(hydroxymethyl)-3-methyl-1H-pyrazol-4-yl]anilino]-2-oxo-ethyl]-2-methyl-pyrazole-3-carboxamide], the EC50 was in the range of 100 to 1000 nM.

As to `CC(C)n1nccc1C(=O)N[C@H](C(=O)Nc1ccc(-c2c(C(C)(C)O)ncn2C)cc1)C(C1CC1)C1CC1` [Example 448, N-[(1S)-1-(Dicyclopropylmethyl)-2-[4-[5-(1-hydroxy-1-methyl-ethyl)-3-methyl-imidazol-4-yl]anilino]-2-oxo-ethyl]-2-isopropyl-pyrazole-3-carboxamide], the EC50 was in the range of 100 to 1000 nM.

On to `Cc1n[nH]c(N)c1-c1ccc(NC(=O)[C@@H](NC(=O)c2ccnn2C)C2CCCCC2)cc1` [Example 449, N-[(1S)-2-[4-(3-Amino-5-methyl-1H-pyrazol-4-yl)anilino]-1-cyclohexyl-2-oxo-ethyl]-2-methyl-pyrazole-3-carboxamide], for which the EC50 lay in the range of 100 to 1000 nM.

On to `Cc1n[nH]c(N)c1-c1ccc(NC(=O)[C@@H](NC(=O)c2ccnn2C)C2CCCCCC2)cc1` [Example 450, N-[(1S)-2-[4-(5-amino-3-methyl-1H-pyrazol-4-yl)anilino]-1-cycloheptyl-2-oxo-ethyl]-2-methyl-pyrazole-3-carboxamide], for which the EC50 lay in the range of 100 to 1000 nM.

As for `Cc1n[nH]c(N)c1-c1ccc(NC(=O)[C@@H](NC(=O)c2ccnn2C)C(C2CCC2)C2CCC2)cc1` [Example 451, N-[(1S)-1-[[4-(3-amino-5-methyl-1H-pyrazol-4-yl)phenyl]carbamoyl]-2,2-di(cyclobutyl)ethyl]-2-methyl-pyrazole-3-carboxamide], the EC50 is < 100 nM.

With `CNc1[nH]nc(C)c1-c1ccc(NC(=O)[C@@H](NC(=O)c2ccnn2C)C2CCCCC2)cc1` [Example 452, N-[(1S)-1-cyclohexyl-2-[4-[5-methyl-3-(methylamino)-1H-pyrazol-4-yl]anilino]-2-oxo-ethyl]-2-methyl-pyrazole-3-carboxamide], the EC50 was > 1000 nM.

Consider `Cc1n[nH]c(N(C)C)c1-c1ccc(NC(=O)[C@@H](NC(=O)c2ccnn2C)C2CCCCC2)cc1` [Example 453, N-[(1S)-1-cyclohexyl-2-[4-[3-(dimethylamino)-5-methyl-1H-pyrazol-4-yl]anilino]-2-oxo-ethyl]-2-methyl-pyrazole-3-carboxamide], for which the EC50 lay within 100 to 1000 nM.

`Cc1n[nH]c(C)c1-c1ccc(NC(=O)[C@@H](NC(=O)N(C)CCCO)C2CCCCC2)cc1` [Example 459, (2S)-2-cyclohexyl-N-[4-(3,5-dimethyl-1H-pyrazol-4-yl)phenyl]-2-[[3-hydroxypropyl(methyl)carbamoyl]amino]acetamide]: the EC50 was > 1000 nM.

As to `CCN(CC)C(=O)N[C@H](C(=O)Nc1ccc(-c2c(C)n[nH]c2C)cc1)C1CCCCC1` [Example 462, (2S)-2-cyclohexyl-2-(diethylcarbamoylamino)-N-[4-(3,5-dimethyl-1H-pyrazol-4-yl)phenyl]acetamide], the EC50 was > 1000 nM.

As to `Cc1n[nH]c(C)c1-c1ccc(NC(=O)[C@@H](NC(=O)N(C)CCO)C2CCCCC2)cc1` [Example 463, (2S)-2-cyclohexyl-N-[4-(3,5-dimethyl-1H-pyrazol-4-yl)phenyl]-2-[[2-hydroxyethyl(methyl)carbamoyl]amino]acetamide], the EC50 was > 1000 nM.

On to `Cc1n[nH]c(C)c1-c1ccc(NC(=O)[C@@H](NC(=O)N2CCCC2CCCO)C2CCCCC2)cc1` (stereo partly drawn) [Example 468, N-[(1S)-1-cyclohexyl-2-[4-(3,5-dimethyl-1H-pyrazol-4-yl)anilino]-2-oxo-ethyl]-2-(3-hydroxypropyl)-pyrrolidine-1-carboxamide], for which the EC50 is > 1000 nM.

For `Cc1n[nH]c(C)c1-c1ccc(NC(=O)[C@@H](NC(=O)N(C)C(C)C)C2CCCCC2)cc1` [Example 469, (2S)-2-cyclohexyl-N-[4-(3,5-dimethyl-1H-pyrazol-4-yl)phenyl]-2-[[isopropyl(methyl)carbamoyl]amino]acetamide], the EC50 was 100 to 1000 nM.

In the case of `Cc1n[nH]c(C)c1-c1ccc(NC(=O)[C@@H](NC(=O)N2CCCCC2)C2CCCCC2)cc1` [Example 472, N-[(1S)-1-cyclohexyl-2-[4-(3,5-dimethyl-1H-pyrazol-4-yl)anilino]-2-oxo-ethyl]piperidine-1-carboxamide], the EC50 is > 1000 nM.
